According to PMC11199504, “New hemisynthetic derivatives of sphaeropsidin phytotoxins triggering severe endoplasmic reticulum swelling in cancer cells” (Scientific Reports, 2024):

What was measured:
U373 cells = assay: Annexin-V/propidium iodide staining by flow cytometry; type: cell-based, human; details: 24 h of treatment
Experimental: (§1) Cell death induced by compounds 1 and 13 was evaluated by means of the double annexin-V/propidium iodide staining by flow cytometry with the FITC Annexin V apoptosis detection kit from BD Pharmingen (USA) according to the manufacturer’s instructions. Briefly, cells were cultured and treated in 25 cm^2 flasks. At the end of the treatment, all cells (adherent and floating cells) were collected, washed and resuspended at 10^6 cells/mL. 100 µL of the cell suspension were stained with 5 µL of FITC-annexin-V and 5 µL of propidium iodide for 15 min at rt in the dark. 400 µL of buffer were then added before data acquisition of 10,000 events per sample (Gallios, Beckman Coulter, Belgium). Caspase activation is usually evaluated to confirm or not the apoptotic feature of the cell death induced. For this purpose, we used the caspase-3, -8 and 9 multiplex assay (Ab219915, Abcam, UK) following manufacters’ instructions. In this assay, cells were exposed to short peptidic sequences linked to different fluorochromes and that could be specifically cleaved by each of these caspases. This assay thereby allowed simultaneous evaluation of the three caspase activities thanks to the quantification of the three fluorophores released in a SynergyMX plate fluorimeter (Biotek, USA).

[1] = molecular target: chymotrypsin-like activity of the proteasome (Homo sapiens, UniProt P28074); assay: Cellular proteasomal chymotrypsin-like activity; type: cell-based; details: 13 at 1 µM, 6 h of treatment, both SKMEL-28 and U373
Experimental: The chemotrypsin-like, trypsin-like and caspase-like activities of the proteasome were evaluated in cells with the G8660, G8861 and G8761 kits respectively according to the manufacturer’s instructions (Promega, USA). Briefly, the assays are based on the use of short amino-acid sequences coupled with luciferin and that can be specifically cleaved by each catalytic unit of the proteasomal complex. For this purpose, cells were seeded in 96 well plates 24 h before their treatment with 1 (5 µM), 13 (1 µM) for 6 h or with the positive control MG132 (1 µM) for 24 h. At the end of the treatments, cells were washed three times with PBS and permeabilized with digitonin (0.5 mg/mL; 50 µL per well) under shaking for 10 min. Then, 50 µL of a mixture of the substrate of interest and luciferase were added for 15 min under slow shaking. Luminescence levels quantified with the Active-Glo LR-100 luminometer (DSLabs, Suisse) were normalized according the number of viable cells evaluated in parallel in the same conditions by means of MTT assay.

caspase-3, -8 and 9 = assay: Caspase-3, -8 and -9 multiplex assay in U373; type: cell-based, human; details: U373 cells, until 24 h of treatment
Experimental: as §1

SKMEL-28 and U373 cells = assay: Reversibility assay; type: cell-based, human; details: after 6 h of treatment, both cell lines
Experimental: The reversibility of the effects induced by compounds 13 was evaluated through qualitative microscopic observation of the cell cultures (morphology and confluence of the cell culture) over time after having been exposed or not to the compound for 1, 3 or 6 h. Negative control corresponds to untreated cells while positive control corresponds to cells treated with 13 continuously over the whole experiment. Briefly, 6 × 10^4 cells per well were seeded in 6 well plates and incubated for 24 h before their use. Culture medium was then replaced by fresh medium with or without compound 13. After 1, 3 or 6 h of treatment, cells were washed and the culture medium was renewed. Pictures were taken at different time points starting at t = 0 when the treatment was applied to the cells, 6 h, 24 h and 72 h thereafter.

caspase-8 = assay: Caspase multiplex assay, caspase-8 in SKMEL-28; type: cell-based, human; details: SKMEL-28 cells, 15 h of treatment
Experimental: as §1

[2] = system: 60 cancer cell line panel; assay: NCI 60 cancer cell line panel testing; type: cell-based
Description: Cell lines are grouped by cancer type [origin]. Determination of the concentration that reduced by 50 % the
Log10 differences are represented by the bars. If a cell line is more sensitive , the bar is on the right , if it is less
sensitive, the bar is on the left. Similar data are represen ted for the 50 % lethal concentration [LC 50] of each
(1 picture or pasted object on this page, not shown here)

caspase-3 = assay: Caspase multiplex assay, caspase-3 in SKMEL-28; type: cell-based, human; details: SKMEL-28 cells, 15 h of treatment
Experimental: as §1

NKCC = details: cited from earlier work
[3] = set-up: method as in PMID 33016969; details: cited from earlier work

Chain of chymotrypsin-like activity of the proteasome (P28074 60-263): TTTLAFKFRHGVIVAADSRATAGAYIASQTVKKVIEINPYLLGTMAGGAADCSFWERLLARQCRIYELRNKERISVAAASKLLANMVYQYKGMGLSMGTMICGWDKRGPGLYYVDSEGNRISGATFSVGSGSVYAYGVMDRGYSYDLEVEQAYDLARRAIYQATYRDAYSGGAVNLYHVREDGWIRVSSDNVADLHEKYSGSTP

Structure (SMILES) | cells positive to annexin-V (U373 cells) | inhibition at 1 µM [1] [%] | caspase activation (caspase-3, -8 and 9) | reversibility of effects (SKMEL-28 and U373 cells) | caspase-8 activity (caspase-8) | CC50 ([2]; NCI 60 cancer cell line panel, read-out: global mean LC50) [nM] | GI50 ([2]; NCI, 48 h of culture, read-out: mean GI50 against the 60 cancer cell line panel) [nM] | caspase-3 activity (caspase-3) | concentration inhibiting NKCC activity (NKCC) | stability in physiological medium [3]
CC1(C=CCCCc2ccc3ccc4cccc5ccc2c3c45)C=C2C(=O)C3(O)OC(=O)C4(CCCC(C)(C)C34)C2(O)CC1 (stereo not shown) [Compound 13] | more than 60% | > 60 | no caspase activation could be detected | irreversible | markedly increased | 1500 | 190 | markedly increased |  | 
C=C[C@]1(C)C=C2C(=O)[C@@]3(O)OC(=O)[C@@]4(CCCC(C)(C)[C@H]34)[C@@]2(O)CC1 [Compound 1, sphaeropsidin A, reference compound] |  |  |  |  |  |  |  |  | low micromolar | instability
